Measurements: patent US8722849B2, “Polypeptides” (Novo Nordisk A/S, priority 2011, dated 2014)
Starred links: 1 amine or outer side, 2 acyl side, 3 side chain; linkers in the order of their positions; H or OH if unused. Positions of bridges follow the written chain, without caps; N, C: chain ends. Non-standard residues stand in square brackets, D forms with d. Residues, ends and D or L forms follow the SMILES beside them. *: point of attachment. C20 diacid = O=C(O)CCCCCCCCCCCCCCCCCCC(=O)*; C18 diacid = O=C(O)CCCCCCCCCCCCCCCCC(=O)*; γGlu = O=C(O)[C@H](CCC(=O)[*:2])N[*:1]; Orn = NCCC[C@H](N)C(=O)O; AEEA = NCCOCCOCC(=O)O

Assays:
Format in all cases: cell-based
[1] = biological target: T1, rat calcitonin (a) receptor (Rattus norvegicus, UniProt P32214); assay: Assay (II)b functional cAMP FlashPlate assay, rat calcitonin receptor; settings: Table 11; read-out: CTa receptor rat EC50
T1 construct: expressed in transfected cells; host or cells: BHK tk'ts 13
T1 sequence (P32214 25-479 isoform P32214-2 limits assumed): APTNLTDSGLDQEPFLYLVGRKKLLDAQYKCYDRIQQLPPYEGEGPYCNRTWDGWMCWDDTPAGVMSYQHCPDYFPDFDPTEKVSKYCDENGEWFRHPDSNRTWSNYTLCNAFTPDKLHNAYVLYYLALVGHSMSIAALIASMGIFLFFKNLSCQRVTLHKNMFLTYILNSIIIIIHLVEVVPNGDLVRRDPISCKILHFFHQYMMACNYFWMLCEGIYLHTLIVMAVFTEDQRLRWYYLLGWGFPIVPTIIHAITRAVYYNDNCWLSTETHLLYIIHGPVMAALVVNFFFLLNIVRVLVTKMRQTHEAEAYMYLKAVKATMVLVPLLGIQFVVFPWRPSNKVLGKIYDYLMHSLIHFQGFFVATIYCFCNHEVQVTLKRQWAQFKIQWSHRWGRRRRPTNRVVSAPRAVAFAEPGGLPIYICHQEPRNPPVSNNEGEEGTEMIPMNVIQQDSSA
In short: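 BHK tk'ts 13 cells transiently transfected with rat calcitonin(a) receptor, alone or with rat RAMP3 (amylin 3(a)), were stimulated 24 hours later with sample for 30 min in buffer containing IBMX. cAMP measured by competitive radioactive FlashPlate assay, scintillation read after 3 h detection incubation.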

[2] = biological target: T2, human calcitonin receptor (Homo sapiens, UniProt P30988); assay: Assay (II)a functional CRE-luciferase assay, human calcitonin receptor; settings: Table 7; human calcitonin (CTa) receptor
T2 construct: expressed in transfected cells; host or cells: BHK570
T2 sequence (P30988 25-474): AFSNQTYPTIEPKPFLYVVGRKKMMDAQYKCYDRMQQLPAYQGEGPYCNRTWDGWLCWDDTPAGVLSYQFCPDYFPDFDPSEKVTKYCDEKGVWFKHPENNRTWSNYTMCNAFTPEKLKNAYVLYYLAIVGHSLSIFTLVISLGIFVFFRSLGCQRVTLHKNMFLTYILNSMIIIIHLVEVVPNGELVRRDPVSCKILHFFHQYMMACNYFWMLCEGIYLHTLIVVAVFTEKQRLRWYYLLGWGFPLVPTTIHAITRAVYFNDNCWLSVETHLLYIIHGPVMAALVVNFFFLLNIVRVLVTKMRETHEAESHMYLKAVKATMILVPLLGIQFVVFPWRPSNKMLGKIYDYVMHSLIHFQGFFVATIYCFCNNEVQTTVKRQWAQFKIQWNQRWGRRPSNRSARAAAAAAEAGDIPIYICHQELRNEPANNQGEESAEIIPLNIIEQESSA

[3] = biological target: T3, human amylin receptor (amylin 3(a) receptor: human calcitonin receptor + RAMP-3) (Homo sapiens, UniProt O60896+P30988); assay: Assay (II)a functional CRE-luciferase assay, human amylin receptor; settings: Table 2; BHK amylin 3(a)-receptor/CRE-luc cells
T3 construct: expressed in transfected cells; host or cells: BHK570
T3 sequence (P30988 25-474): T2 sequence (P30988 25-474)
T3 sequence (O60896 24-148 partner): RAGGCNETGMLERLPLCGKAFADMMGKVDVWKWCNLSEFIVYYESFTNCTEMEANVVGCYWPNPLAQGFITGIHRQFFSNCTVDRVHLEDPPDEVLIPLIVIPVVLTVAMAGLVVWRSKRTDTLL

Row | Structure (SMILES) | EC50 [1] [nM] | EC50 [2] [nM] | EC50 [3] [nM]
1 | CC[C@H](C)[C@H](NC(=O)[C@@H]1CCCN1C(=O)CNC(=O)[C@H](Cc1ccccc1)NC(=O)[C@H](CC(N)=O)NC(=O)[C@H](CC(N)=O)NC(=O)[C@H](CO)NC(=O)[C@H](CO)NC(=O)[C@H](Cc1c[nH]cn1)NC(=O)[C@@H](NC(=O)[C@H](CC(C)C)NC(=O)[C@H](Cc1ccccc1)NC(=O)[C@H](CCC(=O)O)NC(=O)[C@H](C)NC(=O)[C@H](CC(C)C)NC(=O)[C@H](CCCNC(=N)N)NC(=O)[C@H](CCC(N)=O)NC(=O)[C@@H](NC(=O)[C@H](C)NC(=O)[C@@H]1CSSC[C@H](NC(=O)[C@H](CCCCN)NC(=O)CC[C@H](NC(=O)CCCCCCCCCCCCCCCCCCC(=O)O)C(=O)O)C(=O)N[C@@H](CC(N)=O)C(=O)N[C@@H]([C@@H](C)O)C(=O)N[C@@H](C)C(=O)N[C@@H]([C@@H](C)O)C(=O)N1)[C@@H](C)O)C(C)C)C(=O)N[C@@H](CC(C)C)C(=O)N1CCC[C@H]1C(=O)N1CCC[C@H]1C(=O)N[C@H](C(=O)N[C@@H](CC(N)=O)C(=O)N[C@H](C(=O)NCC(=O)N[C@@H](CO)C(=O)N[C@@H](Cc1c[nH]cn1)C(=O)N[C@H](C(=O)N[C@@H](Cc1ccc(O)cc1)C(N)=O)[C@@H](C)O)C(C)C)[C@@H](C)O [Example 93, N-alpha-[(S)-4-Carboxy-4-(19-carboxynonadecanoylamino)butyryl]-[Glu14,His35]-pramlintide] ({C20 diacid-γGlu}-KCNTATCATQRLAEFLVHSSNNFGPILPPTNVGSHTY-NH2; disulfide 2-7 (inferred); C-terminus assumed) | 0.215 | 0.18 | 0.136
2 | CC[C@H](C)[C@H](NC(=O)[C@@H]1CCCN1C(=O)CNC(=O)[C@H](Cc1ccccc1)NC(=O)[C@H](CC(N)=O)NC(=O)[C@H](CC(N)=O)NC(=O)[C@H](CO)NC(=O)[C@H](CO)NC(=O)[C@H](Cc1c[nH]cn1)NC(=O)[C@H](Cc1c[nH]cn1)NC(=O)[C@H](CC(C)C)NC(=O)[C@H](Cc1ccccc1)NC(=O)[C@H](CCC(=O)O)NC(=O)[C@H](C)NC(=O)[C@H](CC(C)C)NC(=O)[C@H](CCCNC(=N)N)NC(=O)[C@H](CCC(N)=O)NC(=O)[C@@H](NC(=O)[C@H](C)NC(=O)[C@@H]1CSSC[C@H](NC(=O)[C@H](CCCNC(=N)N)NC(=O)CC[C@H](NC(=O)CCCCCCCCCCCCCCCCCCC(=O)O)C(=O)O)C(=O)N[C@@H](CC(N)=O)C(=O)N[C@@H]([C@@H](C)O)C(=O)N[C@@H](C)C(=O)N[C@@H]([C@@H](C)O)C(=O)N1)[C@@H](C)O)C(=O)N[C@@H](CC(C)C)C(=O)N1CCC[C@H]1C(=O)N1CCC[C@H]1C(=O)N[C@H](C(=O)N[C@@H](CC(N)=O)C(=O)N[C@H](C(=O)NCC(=O)N[C@@H](CO)C(=O)N[C@@H](CC(N)=O)C(=O)N[C@H](C(=O)N1CCC[C@H]1C(N)=O)[C@@H](C)O)C(C)C)[C@@H](C)O [Example 96, N-alpha-[(S)-4-Carboxy-4-(19-carboxynonadecanoylamino)butyryl]-[Arg1,Glu14,His17,Pro37]-pramlintide] ({C20 diacid-γGlu}-RCNTATCATQRLAEFLHHSSNNFGPILPPTNVGSNTP-NH2; disulfide 2-7 (inferred)) | 0.058 | 0.055 | 0.043
3 | CC[C@H](C)[C@H](NC(=O)[C@@H]1CCCN1C(=O)CNC(=O)[C@H](Cc1ccccc1)NC(=O)[C@H](CC(N)=O)NC(=O)[C@H](CC(N)=O)NC(=O)[C@H](CO)NC(=O)[C@H](CO)NC(=O)[C@H](Cc1c[nH]cn1)NC(=O)[C@H](Cc1c[nH]cn1)NC(=O)[C@H](CC(C)C)NC(=O)[C@H](Cc1ccccc1)NC(=O)[C@H](CCC(=O)O)NC(=O)[C@H](C)NC(=O)[C@H](CC(C)C)NC(=O)[C@H](CCCNC(=N)N)NC(=O)[C@H](CCC(N)=O)NC(=O)[C@@H](NC(=O)[C@H](C)NC(=O)[C@@H]1CSSC[C@H](NC(=O)[C@H](CCCNC(=N)N)NC(=O)CNC(=O)CC[C@H](NC(=O)CCCCCCCCCCCCCCCCCCC(=O)O)C(=O)O)C(=O)N[C@@H](CC(N)=O)C(=O)N[C@@H]([C@@H](C)O)C(=O)N[C@@H](C)C(=O)N[C@@H]([C@@H](C)O)C(=O)N1)[C@@H](C)O)C(=O)N[C@@H](CC(C)C)C(=O)N1CCC[C@H]1C(=O)N1CCC[C@H]1C(=O)N[C@H](C(=O)N[C@@H](CC(N)=O)C(=O)N[C@H](C(=O)NCC(=O)N[C@@H](CO)C(=O)N[C@@H](CC(N)=O)C(=O)N[C@H](C(=O)N1CCC[C@H]1C(N)=O)[C@@H](C)O)C(C)C)[C@@H](C)O [Example 101, N-alpha-[(S)-4-Carboxy-4-(19-carboxynonadecanoylamino)butyryl]-Gly-[Arg1,Glu14,His17,Pro37]-pramlintide] ({C20 diacid-γGlu}-GRCNTATCATQRLAEFLHHSSNNFGPILPPTNVGSNTP-NH2; disulfide 3-8 (inferred)) | 0.044 | 0.0455 | 0.0515
4 | CC[C@H](C)[C@H](NC(=O)[C@@H]1CCCN1C(=O)CNC(=O)[C@H](Cc1ccccc1)NC(=O)[C@H](CC(N)=O)NC(=O)[C@H](CC(N)=O)NC(=O)[C@H](CO)NC(=O)[C@H](CO)NC(=O)[C@H](CCCNC(=N)N)NC(=O)[C@H](Cc1c[nH]cn1)NC(=O)[C@H](CC(C)C)NC(=O)[C@H](Cc1ccccc1)NC(=O)[C@H](CCC(=O)O)NC(=O)[C@H](C)NC(=O)[C@H](CC(C)C)NC(=O)[C@H](CCCNC(=N)N)NC(=O)[C@H](CCC(N)=O)NC(=O)[C@@H](NC(=O)[C@H](C)NC(=O)[C@@H]1CSSC[C@H](NC(=O)[C@H](CCCN)NC(=O)[C@@H](CCCNC(=N)N)NC(=O)[C@@H](CCCNC(=N)N)NC(=O)COCCOCCNC(=O)COCCOCCNC(=O)CC[C@H](NC(=O)CCCCCCCCCCCCCCCCC(=O)O)C(=O)O)C(=O)N[C@@H](CC(N)=O)C(=O)N[C@@H]([C@@H](C)O)C(=O)N[C@@H](C)C(=O)N[C@@H]([C@@H](C)O)C(=O)N1)[C@@H](C)O)C(=O)N[C@@H](CC(C)C)C(=O)N1CCC[C@H]1C(=O)N1CCC[C@H]1C(=O)N[C@H](C(=O)N[C@@H](CC(N)=O)C(=O)N[C@H](C(=O)NCC(=O)N[C@@H](CO)C(=O)N[C@@H](CC(N)=O)C(=O)N[C@H](C(=O)N[C@@H](Cc1ccc(O)cc1)C(N)=O)[C@@H](C)O)C(C)C)[C@@H](C)O [Example 120, N-alpha-[2-(2-{2-[2-(2-{2-[(S)-4-Carboxy-4-(17-carboxyheptadecanoylamino)butyrylamino]ethoxy}ethoxy)acetylamino]ethoxy}ethoxy)acetyl]-D-Arg-D-Arg-[Orn1,Glu14,His17,Arg18]-pramlintide] ({C18 diacid-γGlu-AEEA-AEEA}-[dR][dR][Orn]CNTATCATQRLAEFLHRSSNNFGPILPPTNVGSNTY-NH2; disulfide 4-9 (inferred); C-terminus assumed) | 2.57 | 0.691 | 0.0295
